Results from patent US20110015067A1, “Herbicidal Compositions Comprising Pyroxasulfone” (BASF SE, priority 2008, published 2011).

What was measured:
Format in all cases: in vivo
[1] = system: ALOMY (Alopecurus myosuroides); assay: pre-emergence greenhouse test; conditions: for observed activity in % destruction: pre-emergence
Excerpt: (§1) For the pre-emergence treatment, directly after sowing the active compounds, which had been suspended or emulsified in water, were applied by means of finely distributed nozzles. The containers were irrigated gently to promote germination and growth and subsequently covered with transparent plastic hoods until plant had rooted. This cover caused uniform germination of the tests plants, unless this was adversely affected by active compounds.
(§2) The respective herbicides A and/or safener were formulated as 10% by weight strength suspension concentrate and introduced to the spray liquor with the amount of solvent system used for applying the active compound. Herbicide B and/or safener were used as commercially available formulations and introduced to the spray liquor with the amount of solvent system used for applying the active compound. In the examples, the solvent used was water.
(§3) The test period extended over 20 days. During this time, the plants were tended, and their response to the treatments with active compound was evaluated.
(§4) In the following experiments, the herbicidal activity for the individual herbicide compounds (solo application) and of the mixture was assessed 8 days after treatment (8 DAT) and/or 20 days after treatment (20 DAT).
(§5) The evaluation for the damage caused by the chemical compositions was carried out using a scale from 0 to 100%, compared to the untreated control plants. Here, 0 means no damage and 100 means complete destruction of the plants.

[2] = system: AMARE (Amaranthus retroflexus); assay: pre-emergence greenhouse test; conditions: for observed activity in % destruction: pre-emergence
Excerpt: as §1, §2, §3, §4, §5

[3] = system: AMBEL (Ambrosia artemisifolia); assay: pre-emergence greenhouse test
Excerpt: as §1, §2, §3, §4, §5

[4] = system: BRAPL (Brachiaria plantaginea); assay: pre-emergence greenhouse test; conditions: pre-emergence, 15 g ai/ha
Excerpt: as §1, §2, §3, §4, §5

[5] = system: CCHEC (Cenchrus echinatus); assay: pre-emergence greenhouse test
Excerpt: as §1, §2, §3, §4, §5

[6] = system: COMBE (Commelina benghalensis); assay: pre-emergence greenhouse test; conditions: for observed activity in % destruction: pre-emergence
Excerpt: as §1, §2, §3, §4, §5

[7] = system: ECHCG (Echinochloa crus-galli); assay: pre-emergence greenhouse test; conditions: for observed activity in % destruction: pre-emergence
Excerpt: as §1, §2, §3, §4, §5

ERBVI = assay: pre-emergence greenhouse test
Excerpt: as §1, §2, §3, §4, §5

[8] = system: PANDI (Panicum dichotomiflorum); assay: pre-emergence greenhouse test; conditions: pre-emergence
Excerpt: as §1, §2, §3, §4, §5

[9] = system: PANMI (Panicum milliaceum); assay: pre-emergence greenhouse test
Excerpt: as §1, §2, §3, §4, §5

PHBPU (Ipomoea purpurea) = assay: pre-emergence greenhouse test; conditions: PHBPU pre-emergence 15 g ai/ha
Excerpt: as §1, §2, §3, §4, §5

SETVI (Setaria viridis) = assay: pre-emergence greenhouse test; conditions: for observed activity in % destruction: pre-emergence
Excerpt: as §1, §2, §3, §4, §5

SOLNI (Solanum nigrum) = assay: pre-emergence greenhouse test
Excerpt: as §1, §2, §3, §4, §5

[10] = system: AMBEL (Ambrosia artemisifolia); assay: post-emergence greenhouse test; conditions: 3.75 g ai/ha
Excerpt: (§6) For the post-emergence treatment, the test plants were first grown to a height of 3 to 20 cm, depending on the plant habit, and only then treated. Here, the herbicidal compositions were suspended or emulsified in water as distribution medium and sprayed using finely distributing nozzles.
as §2, §3, §4, §5

[11] = system: CHEAL (Chenopodium album); assay: post-emergence greenhouse test; conditions: 15 g ai/ha
Excerpt: as §6, §2, §3, §4, §5

[12] = system: LOLMU (Lolium multiflorum); assay: post-emergence greenhouse test; conditions: 3.75 g ai/ha
Excerpt: as §6, §2, §3, §4, §5

[13] = system: MERAN (Mercurialis annua); assay: post-emergence greenhouse test; conditions: 7.5 g ai/ha
Excerpt: as §6, §2, §3, §4, §5

SMILES: CC(C)C1(C)N=C(c2nc3ccccc3cc2C(=O)O)NC1=O (centres unmarked) [imazaquin]
- observed % destruction 20 DAT ([1]; ALOMY pre-emergence 15 g ai/ha): 75%
- observed activity in % destruction ([1]; 3.75 g ai/ha, 8 DAT): 0%
- observed activity in % destruction ([1]; 3.75 g ai/ha, 20 DAT): 30%
- observed activity in % destruction ([1]; 15 g ai/ha, 8 DAT): 30%
- observed activity in % destruction ([1]; 15 g ai/ha, 20 DAT): 75%
- observed % destruction 20 DAT ([2]; AMARE pre-emergence 3.75 g ai/ha): 50%
- observed % destruction 20 DAT ([2]; AMARE pre-emergence 15 g ai/ha): 70%
- observed activity in % destruction ([2]; 3.75 g ai/ha, 8 DAT): 40%
- observed activity in % destruction ([2]; 3.75 g ai/ha, 20 DAT): 50%
- observed activity in % destruction ([2]; 7.5 g ai/ha, 8 DAT): 50%
- observed activity in % destruction ([2]; 7.5 g ai/ha, 20 DAT): 60%
- observed % destruction 20 DAT ([3]; AMBEL pre-emergence 3.75 g ai/ha): 50%
- observed % destruction 20 DAT ([3]; AMBEL pre-emergence 7.5 g ai/ha): 60%
- observed % destruction 20 DAT ([3]; AMBEL pre-emergence 15 g ai/ha): 80%
- observed activity in % destruction ([4]; 8 DAT): 20%
- observed activity in % destruction ([4]; 20 DAT): 60%
- observed % destruction 20 DAT ([5]; CCHEC pre-emergence 3.75 g ai/ha): 20%
- observed % destruction 20 DAT ([5]; CCHEC pre-emergence 7.5 g ai/ha): 20%
- observed % destruction 20 DAT ([5]; CCHEC pre-emergence 15 g ai/ha): 35%
- observed % destruction 20 DAT ([6]; COMBE pre-emergence 3.75 g ai/ha): 35%
- observed % destruction 20 DAT ([6]; COMBE pre-emergence 7.5 g ai/ha): 45%
- observed activity in % destruction ([6]; 3.75 g ai/ha, 8 DAT): 20%
- observed activity in % destruction ([6]; 3.75 g ai/ha, 20 DAT): 35%
- observed activity in % destruction ([6]; 7.5 g ai/ha, 8 DAT): 40%
- observed activity in % destruction ([6]; 7.5 g ai/ha, 20 DAT): 45%
- observed activity in % destruction ([6]; 15 g ai/ha, 8 DAT): 50%
- observed activity in % destruction ([6]; 15 g ai/ha, 20 DAT): 70%
- observed % destruction 20 DAT ([7]; ECHCG pre-emergence 3.75 g ai/ha): 0%
- observed % destruction 20 DAT ([7]; ECHCG pre-emergence 7.5 g ai/ha): 0%
- observed % destruction 20 DAT ([7]; ECHCG pre-emergence 15 g ai/ha): 20%
- observed activity in % destruction ([7]; 7.5 g ai/ha, 8 DAT): 0%
- observed activity in % destruction ([7]; 7.5 g ai/ha, 20 DAT): 0%
- observed activity in % destruction ([7]; 15 g ai/ha, 8 DAT): 20%
- observed activity in % destruction ([7]; 15 g ai/ha, 20 DAT): 20%
- observed % destruction 20 DAT (ERBVI; ERBVI pre-emergence 3.75 g ai/ha): 0%
- observed % destruction 20 DAT (ERBVI; ERBVI pre-emergence 7.5 g ai/ha): 20%
- observed activity in % destruction ([8]; 3.75 g ai/ha, 8 DAT): 0%
- observed activity in % destruction ([8]; 3.75 g ai/ha, 20 DAT): 45%
- observed activity in % destruction ([8]; 7.5 g ai/ha, 8 DAT): 20%
- observed activity in % destruction ([8]; 7.5 g ai/ha, 20 DAT): 75%
- observed activity in % destruction ([8]; 15 g ai/ha, 8 DAT): 40%
- observed activity in % destruction ([8]; 15 g ai/ha, 20 DAT): 80%
- observed % destruction 20 DAT ([9]; PANMI pre-emergence 3.75 g ai/ha): 30%
- observed % destruction 20 DAT ([9]; PANMI pre-emergence 7.5 g ai/ha): 40%
- observed % destruction 20 DAT ([9]; PANMI pre-emergence 15 g ai/ha): 45%
- observed % destruction 20 DAT (PHBPU (Ipomoea purpurea)): 40%
- observed % destruction 20 DAT (SETVI (Setaria viridis); SETVI pre-emergence 15 g ai/ha): 75%
- observed activity in % destruction (SETVI (Setaria viridis); 3.75 g ai/ha, 8 DAT): 30%
- observed activity in % destruction (SETVI (Setaria viridis); 3.75 g ai/ha, 20 DAT): 30%
- observed activity in % destruction (SETVI (Setaria viridis); 15 g ai/ha, 8 DAT): 65%
- observed activity in % destruction (SETVI (Setaria viridis); 15 g ai/ha, 20 DAT): 75%
- observed % destruction 20 DAT (SOLNI (Solanum nigrum); SOLNI pre-emergence 3.75 g ai/ha): 40%
- observed % destruction 20 DAT (SOLNI (Solanum nigrum); SOLNI pre-emergence 7.5 g ai/ha): 70%
- observed % destruction 20 DAT (SOLNI (Solanum nigrum); SOLNI pre-emergence 15 g ai/ha): 85%
- observed activity in % destruction ([10]; 8 DAT): 20%
- observed activity in % destruction ([10]; 20 DAT): 20%
- observed activity in % destruction ([11]; 8 DAT): 20%
- observed activity in % destruction ([11]; 20 DAT): 10%
- observed activity in % destruction ([12]; 8 DAT): 0%
- observed activity in % destruction ([12]; 20 DAT): 0%
- observed activity in % destruction ([13]; 8 DAT): 20%
- observed activity in % destruction ([13]; 20 DAT): 0%
